This note sets out measurements from patent US20230201217A1 (priority 2019, published 2023).

“And” between values parts separate entries of the source, which are not always exact repeats. Equal values may be shown once.

One data set concerns the target CYP2C19 (Homo sapiens, UniProt P33261). The note with it: recombinant enzyme.
For a further data set, the target named is CYP2A6 (Homo sapiens, UniProt P11509). The note with it: recombinant enzyme.
Another data set relates to cynomolgus monkeys. Description: 14-day nasogastric gavage GLP toxicity study in cynomolgus monkeys. It is filed as in vivo, cynomolgus monkey. The note with it: 14 days. From the text:
Assessments of neurobehavioral effects and general toxicity were based on mortality, functional observational battery (FOB) evaluations, clinical observations, body weight, and body temperature; ophthalmoscopic, electrocardiographic examinations; and anatomic and clinical pathology. The anatomical pathology evaluations included histopathology of a full list of tissues from all animals and a comprehensive evaluation of the central nervous system (including selected peripheral nerves) utilizing whole body perfusion and special stains. Bone marrow smears from all animals were evaluated microscopically. Complete differentials and myeloid-erythroid (ME) ratios were performed. Toxicokinetic assessment was conducted for the test article and metabolites.

The subject of the next data set is plasma protein. Description: Plasma protein binding. It counts as in vitro ADME, Mouse. The source says:
There is no information on the protein binding of any of the metabolites.

For another data set, the target named is T1, hERG potassium channel (Homo sapiens, UniProt Q12809).
T1 construct: expressed in transfected cells; host or cells: CHO, stably transfected
T1 sequence (Q12809 whole entry): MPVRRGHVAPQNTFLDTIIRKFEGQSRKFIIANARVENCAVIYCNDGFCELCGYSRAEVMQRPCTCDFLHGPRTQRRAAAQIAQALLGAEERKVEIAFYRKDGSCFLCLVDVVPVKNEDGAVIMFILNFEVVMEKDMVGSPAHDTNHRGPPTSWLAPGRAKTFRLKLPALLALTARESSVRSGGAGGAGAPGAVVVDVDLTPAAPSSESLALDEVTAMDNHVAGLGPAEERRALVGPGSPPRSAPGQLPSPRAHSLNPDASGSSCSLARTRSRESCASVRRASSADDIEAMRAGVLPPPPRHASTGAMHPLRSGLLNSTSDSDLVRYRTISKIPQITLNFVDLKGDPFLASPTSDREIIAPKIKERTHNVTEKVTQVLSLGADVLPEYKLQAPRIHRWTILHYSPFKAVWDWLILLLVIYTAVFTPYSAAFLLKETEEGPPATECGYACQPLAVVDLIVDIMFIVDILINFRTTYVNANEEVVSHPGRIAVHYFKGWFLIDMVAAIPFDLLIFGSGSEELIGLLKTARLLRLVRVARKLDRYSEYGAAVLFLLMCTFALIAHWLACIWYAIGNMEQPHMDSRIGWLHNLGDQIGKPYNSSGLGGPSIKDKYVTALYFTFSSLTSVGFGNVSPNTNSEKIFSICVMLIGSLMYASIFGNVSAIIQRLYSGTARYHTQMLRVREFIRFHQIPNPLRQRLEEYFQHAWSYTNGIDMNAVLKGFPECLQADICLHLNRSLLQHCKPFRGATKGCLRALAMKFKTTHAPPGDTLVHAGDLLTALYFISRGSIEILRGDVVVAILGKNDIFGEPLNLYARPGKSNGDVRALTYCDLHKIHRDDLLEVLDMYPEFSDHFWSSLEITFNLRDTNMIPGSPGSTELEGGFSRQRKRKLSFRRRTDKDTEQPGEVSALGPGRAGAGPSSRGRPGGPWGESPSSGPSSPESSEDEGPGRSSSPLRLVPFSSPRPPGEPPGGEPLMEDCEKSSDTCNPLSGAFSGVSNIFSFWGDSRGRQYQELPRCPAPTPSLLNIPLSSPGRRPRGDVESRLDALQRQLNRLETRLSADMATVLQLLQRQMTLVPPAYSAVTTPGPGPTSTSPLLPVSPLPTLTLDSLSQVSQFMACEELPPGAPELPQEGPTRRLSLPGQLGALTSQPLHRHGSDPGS
As to the kind of experiment: In vitro hERG channel inhibition assay, stably transfected CHO cells, voltage clamp. It counts as cell-based. The note with it: average of 3 recordings; read-out: IC50, hERG current inhibition. As for the experimental part:
The potential for 18-MC to inhibit the hERG potassium channel was evaluated in a stably transfected Chinese Hamster Ovary (CHO) cell line expressing hERG mRNA (FIG. 12). […] Cells were voltage clamped at a holding potential of −80 mV. The hERG current was then activated by a depolarizing step ([…] for 300 ms) and repeated every 12 s. 18-MC was prepared from 10 mM methanol stock solutions. The hERG current inhibition was calculated from the average of 3 separate recordings.

CYP2C19, sequence (P33261 whole entry): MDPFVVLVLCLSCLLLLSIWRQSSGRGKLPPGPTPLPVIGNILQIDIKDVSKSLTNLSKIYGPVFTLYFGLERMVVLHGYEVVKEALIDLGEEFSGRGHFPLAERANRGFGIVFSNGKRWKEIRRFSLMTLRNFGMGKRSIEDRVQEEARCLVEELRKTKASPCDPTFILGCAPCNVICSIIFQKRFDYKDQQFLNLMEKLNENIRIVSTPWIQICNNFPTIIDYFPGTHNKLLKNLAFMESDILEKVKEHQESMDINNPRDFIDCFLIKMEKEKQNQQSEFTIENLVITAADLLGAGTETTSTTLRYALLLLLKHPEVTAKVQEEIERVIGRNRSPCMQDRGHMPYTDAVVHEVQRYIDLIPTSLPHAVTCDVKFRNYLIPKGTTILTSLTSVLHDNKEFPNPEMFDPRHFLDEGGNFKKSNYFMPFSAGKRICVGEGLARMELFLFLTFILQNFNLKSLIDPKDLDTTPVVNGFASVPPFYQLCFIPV
CYP2A6, sequence (P11509 whole entry): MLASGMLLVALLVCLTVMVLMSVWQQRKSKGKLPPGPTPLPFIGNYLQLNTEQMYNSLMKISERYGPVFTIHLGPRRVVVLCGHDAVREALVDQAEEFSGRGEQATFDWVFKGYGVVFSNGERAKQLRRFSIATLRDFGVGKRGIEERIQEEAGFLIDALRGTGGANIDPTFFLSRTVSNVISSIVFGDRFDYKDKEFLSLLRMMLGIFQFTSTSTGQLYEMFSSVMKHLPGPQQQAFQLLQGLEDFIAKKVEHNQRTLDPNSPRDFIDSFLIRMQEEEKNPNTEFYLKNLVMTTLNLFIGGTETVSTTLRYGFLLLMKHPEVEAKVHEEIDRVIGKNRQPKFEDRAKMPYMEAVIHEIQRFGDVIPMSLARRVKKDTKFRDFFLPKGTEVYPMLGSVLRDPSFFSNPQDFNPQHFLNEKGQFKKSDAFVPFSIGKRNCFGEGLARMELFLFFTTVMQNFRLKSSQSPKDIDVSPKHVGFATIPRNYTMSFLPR
Method for CYP2A6: (§1) Control incubations were performed for each assay with appropriate positive inhibitory controls.
Method for CYP2C19: as §1

The term IC50 denotes the concentration that gives 50% inhibition. The term NOAEL denotes the highest tested level that showed no adverse finding. `COCC[C@H]1CC2CN3CCc4c([nH]c5ccccc45)[C@](C(=O)OC)(C2)[C@H]13` [18-MC, 18-methoxycoronaridine]: the IC50 is 4.9 µM at CYP2C19; over 100 µM on CYP2A6; 1460 nM and 1600 nM on hERG potassium channel. This compound registered an NOAEL in the data set on cynomolgus monkeys of 50 mg/kg/day. The entries for the “% Bound Mean ± SD” value in the data set on plasma protein (200 ng/mL), with plasma protein (600 ng/mL) and with plasma protein (5,000 ng/mL) were 97.0 ± 0.208%, 97.1 ± 0.058% and 96.5 ± 0.071%, respectively. Further, the “Average % Bound Mean ± SD” value in the data set with plasma protein (average of 3 concentrations) came out at 96.9 ± 0.321%.
